Our source for the pest or weed control values is patent US8586505B2 (SDS Biotech K. K., priority 2009, dated 2013).

What all share (assay type): in vivo
One assay has as its system Phytophthora infestans. Put plainly: whole plant or invertebrate. As to conditions: in Solanum lycopersicum, 96 h, read-out: Determination of control effect (preventive value).
The subject of assay [1] is Pseudoperonospora cubensis. Description: Test of examining control effect on Pseudoperonospora cubensis (potted cucumber plants). Particulars: 96 h, 10% wettable powder adjusted to 125 ppm, 15 ml/pot sprayed on potted cucumber plants one day before spray inoculation, assessed after 1 day wet chamber and 3 days greenhouse, read-out: Determination of control effect (preventive value) on Pseudoperonospora cubensis. How it is done:
(§1) Calculation of Preventive Value: Preventive value={(untreated lesion area rate−treated lesion area rate)/untreated lesion area rate}×100
(§2) Using the thus calculated preventive value, the control effect of each compound was determined in accordance with the following standards.
(§3) High control effect: 100%≧preventive value≧60%
(§4) Low control effect: 60%>preventive value≧0%
Using a spray gun, an agent solution prepared by adjusting a 10% wettable powder of each sample compound to 125 ppm (hereinafter referred to as a “sample agent solution”) was sprayed to potted cucumber plants (variety: Sagamihanjiro, 2.5 leave stage) in a concentration of 15 ml/pot. One day after the spraying, a conidial suspension of Pseudoperonospora cubensis (conidial concentration: 1.0×10^4 cells/ml) was applied to the plants by spray inoculation. After completion of the inoculation, the plants were left at 21° C. under wet chamber conditions for 1 day, and were then left in a greenhouse for 3 days, so that they were fully infected with the aforementioned disease. Thereafter, the disease level on each leaf was compared with that on an untreated leaf, and the control effect of each compound was determined in the same manner as in Example 3(1).

The next assay has as its system Sphaerotheca fuliginea. Put plainly: Test of examining control effect on Sphaerotheca fuliginea (potted cucumber plants). As to conditions: Podosphaera fuliginea, 336 h; 10% wettable powder adjusted to 125 ppm, 15 ml/pot sprayed on potted cucumber plants one day before spray inoculation; assessed after 14 days in greenhouse; read-out: Determination of control effect (preventive value) on Sphaerotheca fuliginea. How it is done:
as §1, §2, §3, §4
Using a spray gun, an agent solution prepared by adjusting a 10% wettable powder of each sample compound to 125 ppm (hereinafter referred to as a “sample agent solution”) was sprayed to potted cucumber plants (variety: Sagamihanjiro, 2nd leave stage) in a concentration of 15 ml/pot. One day after the spraying, a conidial suspension of Sphaerotheca fuliginea (conidial concentration: 1.0×10^5 cells/ml) was applied to the plants by spray inoculation. The plants were left in a greenhouse for 14 days, so that they were fully infected with the aforementioned disease. Thereafter, the disease level on each leaf was compared with that on an untreated leaf, and the control effect of each compound was determined in the same manner as in Example 3(1).

Consider `C(#Cc1csc(N2CCCCC2)n1)CCNc1ncnc2ccccc12` [compound 228], for which the pest or weed control at 125 ppm in the assay with Phytophthora infestans was 0 to 60%. Moreover, the pest or weed control at 125 µg/mL in assay [1] was 60 to 100%; with Sphaerotheca fuliginea, 0 to 60%.
Turning to `O=C(O)c1ccc(C#CCCNc2ncnc3ccccc23)cc1` [compound 127], in the assay with Phytophthora infestans, the pest or weed control at 125 ppm was 60 to 100%. The pest or weed control at 125 µg/mL (in assay [1]; with Sphaerotheca fuliginea) was 60 to 100% each time.
For `COCc1ccccc1C#CCCNc1ncnc(Cl)c1Cl` [compound 365], the pest or weed control at 125 ppm with Phytophthora infestans was 60 to 100%. For the same molecule, the pest or weed control at 125 µg/mL (in assay [1]; with Sphaerotheca fuliginea) was 60 to 100% throughout.
Take `N#Cc1cc(F)ccc1C#CCCNc1ncnc2ccccc12` [compound 170]: the pest or weed control at 125 ppm in the assay on Phytophthora infestans lay in the range of 60 to 100%. Also, the pest or weed control at 125 µg/mL (in assay [1]; in the assay on Sphaerotheca fuliginea) was 60 to 100% throughout.
Turning to `Clc1ncnc(NCCC#Cc2ccccc2)c1-c1ccccc1` [compound 373], the pest or weed control at 125 ppm in the assay on Phytophthora infestans is 0 to 60%. Further, the pest or weed control at 125 µg/mL (in assay [1]; with Sphaerotheca fuliginea) was 0 to 60% throughout.
With `Fc1ccc(C#CCCNc2ncnc3sccc23)cc1` [compound 13], the pest or weed control at 125 ppm with Phytophthora infestans was 0 to 60%. Moreover, the pest or weed control at 125 µg/mL (in assay [1]; in the assay with Sphaerotheca fuliginea) was 60 to 100% throughout.
For `COCc1ccccc1C#CCCNc1ncnc2ccc(-c3ccccc3F)cc12` [compound 334], in the assay on Phytophthora infestans, the pest or weed control at 125 ppm fell in the range of 0 to 60%. The pest or weed control at 125 µg/mL in assay [1] was in the range of 60 to 100%; in the assay with Sphaerotheca fuliginea, 0 to 60%.
For the molecule `CCOC(OCC)c1ccccc1C#CCCNc1ncnc2ccccc12` [compound 150], the pest or weed control at 125 ppm in the assay on Phytophthora infestans lay within 0 to 60%. For the same molecule, the pest or weed control at 125 µg/mL (in assay [1]; in the assay with Sphaerotheca fuliginea) was 0 to 60% throughout.
With `C=Cc1ccc(C#CCCNc2ncnc3ccccc23)cc1` [compound 110], in the assay with Phytophthora infestans, the pest or weed control at 125 ppm was in the range of 60 to 100%. For the same molecule, the pest or weed control at 125 µg/mL (in assay [1]; with Sphaerotheca fuliginea) was 60 to 100% throughout.
In the case of `CC(CC#Cc1csc(Oc2ccccc2)n1)Nc1ncnc2ccccc12` (stereo not drawn) [compound 293], the pest or weed control at 125 ppm with Phytophthora infestans was in the range of 60 to 100%. Moreover, the pest or weed control at 125 µg/mL (in assay [1]; in the assay with Sphaerotheca fuliginea) was 60 to 100% throughout.
With `COCc1ccccc1C#CCCNc1ncnc(Cl)c1C` [compound 363], the pest or weed control at 125 ppm with Phytophthora infestans was in the range of 60 to 100%. For the same molecule, the pest or weed control at 125 µg/mL (in assay [1]; in the assay with Sphaerotheca fuliginea) was 60 to 100% throughout.
Consider `FC(F)(F)c1ccccc1C#CCCNc1ncnc2cccc(Cl)c12` [compound 310], for which the pest or weed control at 125 ppm in the assay with Phytophthora infestans was 0 to 60%. The pest or weed control at 125 µg/mL (in assay [1]; with Sphaerotheca fuliginea) was 60 to 100% throughout.
On to `Fc1cccc(C#CCCNc2ncnc3sccc23)c1` [compound 12], for which the pest or weed control at 125 ppm in the assay with Phytophthora infestans fell in the range of 0 to 60%. Also, the pest or weed control at 125 µg/mL (in assay [1]; in the assay with Sphaerotheca fuliginea) was 60 to 100% each time.
Take `COCc1ccccc1C#CCCNc1ncnc2ccc([N+](=O)[O-])cc12` [compound 331]: the pest or weed control at 125 ppm with Phytophthora infestans was 0 to 60%. The pest or weed control at 125 µg/mL in assay [1] fell in the range of 60 to 100%; with Sphaerotheca fuliginea, 0 to 60%.
On to `COCc1ccccc1C#CCCNc1ncnc2c(C(F)(F)F)cccc12` [compound 323], for which, in the assay on Phytophthora infestans, the pest or weed control at 125 ppm lay within 60 to 100%. Also, the pest or weed control at 125 µg/mL (in assay [1]; in the assay with Sphaerotheca fuliginea) was 60 to 100% in each case.
With `COCc1ccccc1C#CCCNc1ncnc2c(OC)cccc12` [compound 328], the pest or weed control at 125 ppm with Phytophthora infestans lay in the range of 0 to 60%. For the same molecule, the pest or weed control at 125 µg/mL (in assay [1]; with Sphaerotheca fuliginea) was 60 to 100% throughout.
With `C[Si](C)(C)C#CCCNc1ncnc2ccccc12` [compound 87], the pest or weed control at 125 ppm in the assay with Phytophthora infestans lay in the range of 60 to 100%. The pest or weed control at 125 µg/mL (in assay [1]; in the assay with Sphaerotheca fuliginea) was 60 to 100% throughout.
Consider `CC(CC#Cc1ccc(S(C)(=O)=O)cc1Cl)Nc1ncnc2sccc12` (stereo not drawn) [compound 256], for which, in the assay on Phytophthora infestans, the pest or weed control at 125 ppm was 60 to 100%. For the same molecule, the pest or weed control at 125 µg/mL (in assay [1]; in the assay on Sphaerotheca fuliginea) was 60 to 100% each time.
As for `Fc1ccccc1Oc1nc(C#CCCNc2ncnc3ccccc23)cs1` [compound 224], the pest or weed control at 125 ppm with Phytophthora infestans was 60 to 100%. Further, the pest or weed control at 125 µg/mL (in assay [1]; in the assay with Sphaerotheca fuliginea) was 60 to 100% throughout.
As to `CC(CC#Cc1ccc(Cl)cc1C(F)(F)F)Nc1ncnc2ccc(F)cc12` (stereo not drawn) [compound 345], in the assay on Phytophthora infestans, the pest or weed control at 125 ppm lay in the range of 0 to 60%. Moreover, the pest or weed control at 125 µg/mL (in assay [1]; with Sphaerotheca fuliginea) was 60 to 100% in each case.
For the molecule `Cc1nc(C#CCC(C)Nc2ncnc3ccccc23)cs1` (stereo not drawn) [compound 292], the pest or weed control at 125 ppm in the assay with Phytophthora infestans lay in the range of 60 to 100%. The pest or weed control at 125 µg/mL (in assay [1]; with Sphaerotheca fuliginea) was 60 to 100% in each case.
On to `COC(=O)N(OC)c1ccccc1C#CCCNc1ncnc2ccccc12` [compound 125], for which the pest or weed control at 125 ppm with Phytophthora infestans is 60 to 100%. Besides, the pest or weed control at 125 µg/mL in assay [1] was 60 to 100%; with Sphaerotheca fuliginea it was 0 to 60%.
With `FC(F)(F)c1ccccc1C#CCCNc1ncnc2sccc12` [compound 25], the pest or weed control at 125 ppm in the assay on Phytophthora infestans is 60 to 100%. For the same molecule, the pest or weed control at 125 µg/mL (in assay [1]; in the assay with Sphaerotheca fuliginea) was 60 to 100% throughout.
Turning to `COCc1ccccc1C#CCCNc1ncnc2ccc(-c3ccc(F)cc3)cc12` [compound 336], in the assay on Phytophthora infestans, the pest or weed control at 125 ppm lay within 0 to 60%. Moreover, the pest or weed control at 125 µg/mL in assay [1] was 60 to 100%; with Sphaerotheca fuliginea, 0 to 60%.
As to `C(#Cc1cccs1)CCNc1ncnc2ccccc12` [compound 204], the pest or weed control at 125 ppm in the assay with Phytophthora infestans fell in the range of 60 to 100%. The pest or weed control at 125 µg/mL (in assay [1]; in the assay on Sphaerotheca fuliginea) was 60 to 100% in each case.
As for `CC(CC#Cc1ccccc1S(C)(=O)=O)Nc1ncnc2sccc12` (stereo not drawn) [compound 237], the pest or weed control at 125 ppm with Phytophthora infestans was in the range of 60 to 100%. Also, the pest or weed control at 125 µg/mL (in assay [1]; in the assay with Sphaerotheca fuliginea) was 60 to 100% in each case.
Consider `Cc1cccc2c(NC(C)CC#Cc3ccc(Cl)cc3C(F)(F)F)ncnc12` (stereo not drawn) [compound 354], for which the pest or weed control at 125 ppm in the assay on Phytophthora infestans was 0 to 60%. Moreover, the pest or weed control at 125 µg/mL (in assay [1]; with Sphaerotheca fuliginea) was 60 to 100% in each case.
On to `CN(C)S(=O)(=O)c1ccc(C#CCCNc2ncnc3ccccc23)cc1` [compound 122], for which the pest or weed control at 125 ppm in the assay with Phytophthora infestans was in the range of 0 to 60%. For the same molecule, the pest or weed control at 125 µg/mL in assay [1] lay in the range of 60 to 100%; with Sphaerotheca fuliginea it was 0 to 60%.
As to `CCC(CC#Cc1ccc(F)cc1C(F)(F)F)Nc1ncnc2ccccc12` (stereo not drawn) [compound 295], the pest or weed control at 125 ppm with Phytophthora infestans lay in the range of 0 to 60%. The pest or weed control at 125 µg/mL (in assay [1]; with Sphaerotheca fuliginea) was 60 to 100% throughout.
Consider `CC(C)c1ccccc1C#CCCNc1ncnc2ccccc12` [compound 104], for which, in the assay with Phytophthora infestans, the pest or weed control at 125 ppm fell in the range of 60 to 100%. For the same molecule, the pest or weed control at 125 µg/mL (in assay [1]; in the assay on Sphaerotheca fuliginea) was 60 to 100% throughout.
As for `Cc1cc(Cl)ccc1C#CCC(C)Nc1ncnc2sccc12` (stereo not drawn) [compound 250], the pest or weed control at 125 ppm with Phytophthora infestans fell in the range of 60 to 100%. For the same molecule, the pest or weed control at 125 µg/mL (in assay [1]; in the assay with Sphaerotheca fuliginea) was 60 to 100% throughout.
For `Cc1ncnc(NCCC#Cc2ccc(Cl)cc2C(F)(F)F)c1Cl` [compound 360], in the assay on Phytophthora infestans, the pest or weed control at 125 ppm fell in the range of 0 to 60%. For the same molecule, the pest or weed control at 125 µg/mL (in assay [1]; with Sphaerotheca fuliginea) was 60 to 100% throughout.
Consider `COC(=O)c1ccc(C#CCCNc2ncnc3sccc23)cc1` [compound 31], for which the pest or weed control at 125 ppm in the assay on Phytophthora infestans lay within 0 to 60%. In addition, the pest or weed control at 125 µg/mL in assay [1] fell in the range of 60 to 100%; with Sphaerotheca fuliginea, 0 to 60%.
For the molecule `Cc1nc(C#CCCNc2ncnc3ccccc23)cs1` [compound 211], the pest or weed control at 125 ppm in the assay on Phytophthora infestans lay within 60 to 100%. The pest or weed control at 125 µg/mL (in assay [1]; in the assay with Sphaerotheca fuliginea) was 60 to 100% each time.
Turning to `COCc1ccccc1C#CCCNc1ncnc2ccc(OC)cc12` [compound 329], the pest or weed control at 125 ppm with Phytophthora infestans was 60 to 100%. Further, the pest or weed control at 125 µg/mL (in assay [1]; in the assay on Sphaerotheca fuliginea) was 60 to 100% in each case.
Regarding `CCC(CC#Cc1ccc(F)cc1)Nc1ncnc2ccccc12` (stereo not drawn) [compound 294], the pest or weed control at 125 ppm in the assay with Phytophthora infestans fell in the range of 0 to 60%. Further, the pest or weed control at 125 µg/mL (in assay [1]; in the assay on Sphaerotheca fuliginea) was 60 to 100% in each case.
As to `Clc1cc(C#CCCNc2ncnc3ccccc23)ccn1` [compound 196], the pest or weed control at 125 ppm with Phytophthora infestans was 0 to 60%. In addition, the pest or weed control at 125 µg/mL (in assay [1]; in the assay on Sphaerotheca fuliginea) was 60 to 100% throughout.
In the case of `CC(CC#Cc1ccc(C(F)(F)F)cc1Cl)Nc1ncnc2ccccc12` (stereo not drawn) [compound 282], the pest or weed control at 125 ppm with Phytophthora infestans lay in the range of 0 to 60%. The pest or weed control at 125 µg/mL (in assay [1]; with Sphaerotheca fuliginea) was 60 to 100% throughout.
